Values quoted from earlier work as cited in patent US20130143829A1, “Topical Combination Formulations of Macrocyclic Lactones with Synthetic Pyrethroids” (priority 2011, published 2013).

Settings: in vivo

eprinomectin
Milk to plasma partition ratio: ~0.2
